In data set [1] the test system is Rattus norvegicus. Description: Toxicity in Sprague-Dawley rat assessed as liver weight at 300 mg/kg dosed daily for 2 weeks. In kind it is organism-based. Also noted: dose 300 mg/kg. To be noted: in vivo, 336 h.
Data set [2] is described as follows: Plasma clearance in rat. In kind it is ADME, organism-based.
A short description of data set [3]: AUC in obese insulin-resistant Zucker fa/fa rat at 30 mg/kg, po once daily for 7 days. In kind it is ADME, organism-based. Also noted: dose 30 mg/kg, route oral. To be noted: plasma.
The target in data set [4] is T1, Peroxisome proliferator-activated receptor alpha (Mus musculus, UniProt P23204).
T1 sequence (P23204 whole entry): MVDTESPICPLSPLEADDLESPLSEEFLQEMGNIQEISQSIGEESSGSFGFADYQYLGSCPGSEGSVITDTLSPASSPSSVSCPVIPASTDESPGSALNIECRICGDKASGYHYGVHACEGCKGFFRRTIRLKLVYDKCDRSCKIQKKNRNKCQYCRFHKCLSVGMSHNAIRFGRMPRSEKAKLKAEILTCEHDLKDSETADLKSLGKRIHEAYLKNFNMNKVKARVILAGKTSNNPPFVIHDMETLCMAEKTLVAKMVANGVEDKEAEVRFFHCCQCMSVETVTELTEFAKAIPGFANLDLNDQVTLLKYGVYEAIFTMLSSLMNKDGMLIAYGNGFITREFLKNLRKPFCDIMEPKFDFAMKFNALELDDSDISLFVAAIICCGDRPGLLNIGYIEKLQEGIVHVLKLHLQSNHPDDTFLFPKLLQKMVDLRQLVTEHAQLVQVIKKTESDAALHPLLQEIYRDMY
The data set can be described thus: Agonist activity at mouse PPARalpha. In kind it is functional. To be noted: read-out: EC50.

Data set [5] can be described thus: AUC in Sprague-Dawley rat at 300 mg/kg dosed daily for 2 weeks. Also noted: dose 300 mg/kg. In kind it is ADME, organism-based. As to conditions: plasma.
Data set [6] can be described thus: Terminal half life in rat. To be noted: in vivo, read-out: beta t1/2 (converted). Type of data set: ADME, organism-based.
A short description of data set [7]: Oral bioavailability in monkey. In kind it is ADME, organism-based, Macaca mulatta. To be noted: rhesus monkey, in vivo.
A short description of data set [8]: AUC in db/db mouse at 30 mg/kg, po administered once daily for 11 days. In kind it is ADME, organism-based. Also noted: dose 30 mg/kg, route oral. As to conditions: plasma.
In a further data set the test system is Cricetinae. Description: Agonist activity at hamster PPARalpha at 3000 nM. Type of data set: functional.
Data set [9] deals with Rattus norvegicus. The data set can be described thus: Toxicity in Sprague-Dawley rat assessed as brown adipose tissue weight at 300 mg/kg dosed daily for 2 weeks. Type of data set: organism-based. Also on record: dose 300 mg/kg. To be noted: in vivo, 336 h.
Data set [10] in a line: Terminal half life in monkey. In kind it is ADME, organism-based, Macaca mulatta. To be noted: rhesus monkey, in vivo; read-out: beta t1/2 (converted).
Data set [11] in a line: Inhibition of CYP450. Type of data set: ADME.
Data set [12] in a line: Volume of distribution at steady state in dog. Type of data set: ADME, organism-based, Canis lupus familiaris. As to conditions: in vivo, read-out: Vdss.
In data set [13] the target is T2, Peroxisome proliferator-activated receptor alpha (Homo sapiens, UniProt Q07869).
T2 sequence (Q07869 whole entry): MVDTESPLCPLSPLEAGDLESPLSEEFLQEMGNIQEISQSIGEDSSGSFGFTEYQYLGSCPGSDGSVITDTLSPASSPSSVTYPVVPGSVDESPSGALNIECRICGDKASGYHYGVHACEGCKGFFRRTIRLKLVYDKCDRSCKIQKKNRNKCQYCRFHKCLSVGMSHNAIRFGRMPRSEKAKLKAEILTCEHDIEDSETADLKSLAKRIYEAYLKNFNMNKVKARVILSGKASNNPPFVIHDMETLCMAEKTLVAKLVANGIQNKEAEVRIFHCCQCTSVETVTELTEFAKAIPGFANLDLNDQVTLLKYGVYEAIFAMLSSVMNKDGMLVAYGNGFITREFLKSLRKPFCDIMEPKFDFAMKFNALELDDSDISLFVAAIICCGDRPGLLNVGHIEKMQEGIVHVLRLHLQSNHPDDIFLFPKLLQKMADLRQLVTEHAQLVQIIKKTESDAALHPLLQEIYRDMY
The data set can be described thus: Displacement of [3H2]nTZD3 from human recombinant GST-fused PPARalpha expressed in Escherichia coli by scintillation proximity assay. In general terms: SPA uses beads or plates that emit light when radiolabelled molecules are held near them.

In data set [14] the target is T3, Peroxisome proliferator-activated receptor gamma (Homo sapiens, UniProt P37231).
T3 sequence (P37231 whole entry): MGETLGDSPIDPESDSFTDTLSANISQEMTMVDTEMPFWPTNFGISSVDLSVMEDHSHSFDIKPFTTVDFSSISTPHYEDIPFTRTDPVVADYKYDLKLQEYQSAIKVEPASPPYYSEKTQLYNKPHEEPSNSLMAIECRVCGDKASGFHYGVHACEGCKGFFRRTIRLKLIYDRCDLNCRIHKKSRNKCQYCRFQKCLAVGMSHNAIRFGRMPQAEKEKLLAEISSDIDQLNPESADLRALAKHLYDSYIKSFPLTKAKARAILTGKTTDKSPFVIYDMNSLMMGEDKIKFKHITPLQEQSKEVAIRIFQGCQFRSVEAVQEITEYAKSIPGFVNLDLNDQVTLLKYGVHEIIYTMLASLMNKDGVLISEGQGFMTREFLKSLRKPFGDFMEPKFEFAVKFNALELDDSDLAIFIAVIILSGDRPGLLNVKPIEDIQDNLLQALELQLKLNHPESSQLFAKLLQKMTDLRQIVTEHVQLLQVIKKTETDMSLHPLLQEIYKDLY
Description: Displacement of [3H2]nTZD3 from human recombinant GST-fused PPARgamma expressed in Escherichia coli by scintillation proximity assay

The test system of data set [15] is Rattus norvegicus. Description: Antidiabetic activity in obese insulin-resistant Zucker fa/fa rat assessed as decrease in plasma insulin level at 3 to 150 mg/kg, po once daily for 7 days. Type of data set: functional, organism-based.
The nature of data set [16]: AUC in obese insulin-resistant Zucker fa/fa rat at 150 mg/kg, po once daily for 7 days. Type of data set: ADME, organism-based. Also noted: dose 150 mg/kg, route oral. As to conditions: plasma.
In data set [17] the test system is Rattus norvegicus. The data set can be described thus: Toxicity in obese insulin-resistant Zucker fa/fa rat assessed as increase in plasma volume at 100 mg/kg, po once daily for 7 days by Evans blue dye dilution technique. To be noted: in vivo, 168 h.
Data set [18] addresses T4, Peroxisome proliferator-activated receptor alpha (Canis lupus familiaris) (UniProt Q95N78).
T4 sequence (whole entry): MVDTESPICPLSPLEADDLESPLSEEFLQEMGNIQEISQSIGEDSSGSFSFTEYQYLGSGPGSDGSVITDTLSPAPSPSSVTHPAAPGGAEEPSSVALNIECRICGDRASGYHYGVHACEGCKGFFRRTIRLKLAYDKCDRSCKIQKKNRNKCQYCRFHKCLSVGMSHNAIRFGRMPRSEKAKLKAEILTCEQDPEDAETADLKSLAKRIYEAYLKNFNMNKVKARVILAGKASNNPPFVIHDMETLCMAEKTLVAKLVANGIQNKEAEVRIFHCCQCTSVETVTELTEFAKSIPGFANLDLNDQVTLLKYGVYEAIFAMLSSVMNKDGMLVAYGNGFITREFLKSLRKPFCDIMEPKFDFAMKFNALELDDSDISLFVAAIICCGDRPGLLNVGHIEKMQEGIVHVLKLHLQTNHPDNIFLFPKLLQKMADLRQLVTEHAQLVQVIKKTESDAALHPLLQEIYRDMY
Description: Agonist activity at dog PPARalpha at 3000 nM. In kind it is functional.

Data set [19] has as its target T5, Peroxisome proliferator-activated receptor alpha (Mus musculus) (UniProt P23204).
T5 sequence (whole entry): T1 sequence (P23204 whole entry)
Description: Agonist activity at mouse PPARalpha at 3000 nM. In kind it is functional.

The nature of data set [20]: Oral bioavailability in rat. Type of data set: ADME, organism-based. To be noted: in vivo.
A further data set has as its system Plasma. The data set can be described thus: Protein binding in rat plasma assessed per mg of protein. Type of data set: ADME, cell-free.
Data set [21] deals with Rattus norvegicus. The data set can be described thus: Antidiabetic activity in obese insulin-resistant Zucker fa/fa rat assessed as decrease in plasma triglyceride level at 3 to 150 mg/kg, po once daily for 7 days. In kind it is functional, organism-based.
Data set [22] can be described thus: Plasma clearance in dog. In kind it is ADME, organism-based, Canis lupus familiaris.

Active and inactive are the calls of the source. No cut-off for these calls is given here.

As usually defined, the clearance is a measure of how efficiently the substance is removed, as volume per time. By EC50 is commonly meant the concentration giving half of the maximal effect. One may read the bioavailability as dose-corrected exposure relative to a reference, in per cent. As a reminder, the IC50 is the concentration needed to halve the response being measured. Consider `CC[C@@H](Oc1cccc(-n2c(C)c(C(=O)c3ccc(OC)cc3)c3ccc(OC(F)(F)F)cc32)c1)C(=O)O` [MK-0533], for which the Activity was 19.7 g with Rattus norvegicus [1]; 52% in the data set on Cricetinae; 537 mg with Rattus norvegicus [9]; “Toxic” in the data set with Rattus norvegicus [17]; 35% in [18]; 53% in [19]. Besides, the results for the clearance in data set [2] and in data set [22] were 18.3 mL/min/kg and 7.5 mL/min/kg, respectively. In addition, the AUC at 168 h in data set [3] amounted to 115 µM·h; in data set [16] it was 4520 µM·h. The EC50 in data set [4] is 240 nM. Also, the AUC at 336 h in data set [5] came out at 954 µM·h. Further, the half-life in [6] is 1.6 h; in data set [10], 3.2 h. Besides, the bioavailability in data set [7] is 25%; in [20], 81%. Also, the AUC at 264 h in [8] is 60 µM·h. The molecule also registered an INH in data set [11] above 10 µM. Further, the Vd in data set [12] came to 1.4 L/kg. The IC50 is above 50000 nM in [13] and 9 nM in data set [14]. Moreover, the outcome with Rattus norvegicus [15] and in the data set on Rattus norvegicus [21] was Active. In the data set on Plasma, this molecule returned a PPB below 10 pmol.

The values are drawn from ChEMBL document CHEMBL1137013, “Discovery of (2R)-2-(3-{3-[(4-Methoxyphenyl)carbonyl]-2-methyl-6-(trifluoromethoxy)-1H-indol-1-yl}phenoxy)butanoic acid (MK-0533): a novel selective peroxisome proliferator-activated receptor gamma modulator for the treatment of type 2 diabetes mellitus with a reduced potential to increase plasma …” (J Med Chem, 2009).
